From patent publication US20030088057A1, “PEPTIDE SUBSTRATES PHOSPHORYLATED BY P21-ACTIVAGED PROTEIN KINASE STATEMENT REGARDING FEDERALLY SPONSORED REASEARCH OR DEVELOPMENT” (priority 1998, published 2003)
No end group written: not given here.

How the values were obtained:
γ-PAK [1] = experiment: Rates of phosphorylation of synthetic peptides by γ-PAK; format: biochemical, rabbit
From the text: (§1) A. Materials. γ-PAK was purified from rabbit reticulocytes to apparent homogeneity by chromatography on DEAE-cellulose, SP-Sepharose, protamine agarose, and FPLC on Mono S and Mono Q. Histone I (type IIIS), mixed histone (type IIAS), trypsin (L-1-tosylamido-2-phenylethyl chloromethyl ketone treated), soybean trypsin inhibitor, bovine serum albumin (fatty acid free), and myelin basic protein were purchased from Sigma. Purified histones 2B and 4 were purchased from Boehringer-Mannheim. Myosin light chain from rabbit skeletal muscle was a gift from Dr. James Stull, University of Texas Southwestern Medical Center, Dallas, Tex.; rat prolactin was provided by Dr. Ameae Walker, University of California, Riverside, Calif.; and the purified catalytic subunit of cAMP-dependent protein kinase from bovine heart was a gift from Dr. William H. Fletcher, J. L. Pettis Memorial V. A. Hospital, Loma Linda, Calif. Protein kinase C was purified from bovine brain according to the procedure of Walton et al. [Walton, G. M., et al., Anal Biochem., 161:425-437 (1987)], with modifications [Venema, R. C., et al., J. Biol. Chem., 266:5298-5302 (1991)]. The clone for GST-Cdc42 was generously provided by Dr. Channing Der, University of North Carolina, Chapel Hill, N.C. Cellulose thin-layer chromatography sheets were from Kodak.
D. Phosphorylation Assays. Phosphorylation of protein substrates was carried out in 35 μL reaction mixtures containing 20 mM Tris-HCl, pH 7.4, 10 mM MgCl2, 30 mM 2-mercaptoethanol, 0.2 mM ATP (specific activity =1000 cpm/pmol), 2 μg of protein substrate, and 20 units of active γ-PAK (an enzyme unit is defined as the amount of enzyme that incorporates 1 pmol of phosphate into histone IIAS/ min at 30°. Under these conditions, phosphate incorporation was linear and initial rates of phosphorylation were measured. After incubation at 30° C. for 15 min, reactions were terminated by the addition of 5 μL of 100 mM nonlabeled ATP and sample buffer for gel electrophoresis [Hathaway, G. M., et al., Methods Enzymol., 60:495-511 (1979)]. Reaction mixtures were subjected to SDS-PAGE on 15% polyacrylamide gels followed by autoradiography. Phosphorylation was quantified by excising the protein band and counting the incorporated ^32P in a liquid scintillation counter. The specific activity of γ-PAK was 400 pmol min^−1 μg^−1 as reported previously using 0.2 mM ATP and 1 mg/mL mixed histone as substrate [Rooney, R. D., et al., (1996), supra].
(§2) Assays with peptides (I mM) were carried out with γ-PAK (1.6-5.6 units) in 25 μL reaction mixtures incubated for 30 min at 30° C. under conditions described above, except that 0.4 mg/mL of bovine serum albumin was added and the specific activity of ATP was 300-2000 cpm/pmol. Reactions were terminated with 5 μL of 100 mM ATP, and the amount of ^32p incorporated was quantitated by precipitation of 20 μL aliquots on P81 phosphocellulose paper with 75 mM H3PO4 as described previously [Bensen, E. S., et al., Biochim. Biophys. Acta, 1292:249-258 (1996)]. Peptides containing only one basic amino acid were analyzed by thin-layer electrophoresis on cellulose sheets for 2 h at 600 V with pyridine/acetic acid/water (10:100:890), pH 3.5, as solvent, as described previously [Bensen, E. S., et al., supra]. Activation of γ-PAK by autophosphorylation in the presence of Cdc42(GTPγS) was performed as previously described [Jakobi, R., et al., supra]. γ-PAK was also activated by limited digestion with trypsin as described previously [Rooney, R. D., et al., (1996), supra].

γ-PAK [2] = experiment: Kinetic parameters (Km, Vmax) for phosphorylation of synthetic peptides by γ-PAK; format: biochemical, rabbit
Description: as §2

PKC = experiment: Rates of phosphorylation of synthetic peptides by PKC; format: biochemical, bovine
From the text: as §1
(§3) Reactions with PKA (10.5 units) were carried out under the same conditions as with γ-PAK except that 0.14 mM ATP was used. Reactions with PKC (3.4 units) were performed as with PKA, with the addition of 0.4 mM CaCl2, phosphatidylinositol (15 μg/mL), phosphatidylserine (15 μg/ mL), and 1,2-diolein (3 μg/mL), as described [Tuazon, P. T., et al., (1989), supra]. A unit of PKA or PKC is defined as the amount of enzyme that incorporates 1 pmol of phosphate/min at 30° C. into histone IIAS or histone 1, respectively.
PKA and PKC are known to require basic amino acids on the N-terminal side of the phosphorylatable serine/ threonine. To distinguish their substrate specificities from that of γ-PAK, the relative rates of phosphorylation were determined with the synthetic peptide substrates using the conditions for γ-PAK, with the addition of Ca^2+ and phospholipids for PKC. The rates shown in Table 5 are calculated with equivalent units of enzyme; the rate of phosphorylation of the peptide AKRASAA (SEQ ID NO:6) is taken as 100% for all three enzymes. As would be expected, PKA preferentially phosphorylated the peptides that contained RR or RK at the −3 and −2 positions and with […] residues or proline at the −4 and −1 positions inhibitory. PKC recognized SKR>RKS>KKS. The most notable difference between γ-PAK and PKA or PKC is the effect of acidic residues on the susceptibility of the peptide to be phosphorylated. An acidic residue in the −1 or −4 position was beneficial for γ-PAK but was detrimental for both PKA and PKC (Table 5). […] In addition, γ-PAK could not tolerate an arginine in the −3 position when lysine was in the −2 position.

PKA = target: T1, PKA (Bos taurus, UniProt P00517); experiment: Rates of phosphorylation of synthetic peptides by PKA; format: biochemical, bovine
T1 construct: the purified catalytic subunit of cAMP-dependent protein kinase from bovine heart was a gift; from tissue; host or cells: bovine heart (gift from Dr. William H. Fletcher)
From the text: as §1, with “Myosin light chain from rabbit skeletal muscle was a gift from Dr. James Stull, University of Texas Southwestern Medical Center, Dallas, Tex.; rat prolactin was provided by Dr. Ameae Walker, University of California, Riverside, Calif.; and the purified catalytic subunit of cAMP-dependent protein kinase from bovine heart was a gift from Dr. William H. Fletcher, J. L. Pettis Memorial V. A. Hospital, Loma Linda, Calif.” left out
as §3
PKA and PKC are known to require basic amino acids on the N-terminal side of the phosphorylatable serine/ threonine. To distinguish their substrate specificities from that of γ-PAK, the relative rates of phosphorylation were determined with the synthetic peptide substrates using the conditions for γ-PAK, with the addition of Ca^2+ and phospholipids for PKC.

γ-PAK [3] = target: T2, γ-PAK (Oryctolagus cuniculus, UniProt Q29502); experiment: Phosphorylation of heptapeptides by Cdc42-activated γ-PAK with ATP(Mg) and ATP(Mn); format: biochemical, rabbit; settings: γ-PAK 2.5 units, Cdc42(GTPγS)-activated; 10 mM MgCl2 or 6 mM MnCl2
T2 construct: γ-PAK was purified from rabbit reticulocytes to apparent homogeneity; from tissue; host or cells: rabbit reticulocytes (γ-PAK)
T2 sequence (Q29502 2-524 limits assumed): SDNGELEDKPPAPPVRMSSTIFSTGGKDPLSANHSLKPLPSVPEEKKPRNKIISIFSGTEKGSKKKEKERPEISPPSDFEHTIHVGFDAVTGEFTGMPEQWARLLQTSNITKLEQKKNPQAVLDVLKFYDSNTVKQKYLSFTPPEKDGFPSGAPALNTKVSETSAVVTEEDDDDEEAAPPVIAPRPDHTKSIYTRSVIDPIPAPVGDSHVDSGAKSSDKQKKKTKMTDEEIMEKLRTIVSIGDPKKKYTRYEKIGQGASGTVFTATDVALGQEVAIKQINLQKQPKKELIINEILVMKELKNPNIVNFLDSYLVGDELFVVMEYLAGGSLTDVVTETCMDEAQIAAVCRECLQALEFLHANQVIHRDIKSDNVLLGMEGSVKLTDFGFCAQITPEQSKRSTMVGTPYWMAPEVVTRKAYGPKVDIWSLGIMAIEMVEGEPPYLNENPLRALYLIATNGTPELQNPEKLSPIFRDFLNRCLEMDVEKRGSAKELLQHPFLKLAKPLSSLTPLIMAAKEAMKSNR
Description: Synthetic heptapeptides were used to examine the activity of γ-PAK with manganese and magnesium. The peptides were incubated with γ-PAK (2.5 units), activated by autophosphorylation in the presence of Cdc42(GTPγS) and 10 mM MgCl2 or 6 mM MnCl2 as described under Experimental Procedures.

Sequence of γ-PAK (Q29502 249-500 limits assumed): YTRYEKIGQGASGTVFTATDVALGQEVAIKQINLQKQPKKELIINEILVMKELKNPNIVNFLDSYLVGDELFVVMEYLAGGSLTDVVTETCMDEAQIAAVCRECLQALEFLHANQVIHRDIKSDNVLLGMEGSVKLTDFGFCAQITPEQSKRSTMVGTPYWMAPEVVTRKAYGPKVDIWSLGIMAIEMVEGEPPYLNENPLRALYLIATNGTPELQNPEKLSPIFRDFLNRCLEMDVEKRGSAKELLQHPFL

increase of Km compared to AKRASAA (γ-PAK [2]): ~3 fold
increase of Vmax compared to AKRASAA (γ-PAK [2]): 6 fold
overall rate of phosphorylation (Vmax/Km) compared to AKRASAA (γ-PAK [2]): ~2.2 fold
Vmax (γ-PAK [2]; Table 3, influence of acidic amino acids): 6.62 pmol/min
Km (γ-PAK [2]; Table 3, influence of acidic amino acids, read-out: Km): 1350 µM
Vmax (γ-PAK [2]; text summary b32): 6.62 pmol/min
32P incorporated (PKA; PKA (10.5 units), 0.14 mM ATP): 1.8 pmol/unit
32P incorporated, % (PKA; PKA, AKRASAA taken as 100%): 38%
phosphorylation using ATP(Mg) or ATP(Mn) (in words) (γ-PAK [3]): good substrates
Substance: AKRESAA (AKRESAA-NH2) [synthetic peptide with an amide C-terminal group]
rel rate (%) (γ-PAK [1]; Cdc42(GTPγS)-activated γ-PAK, peptide 1 mM, KKRKSAA = 100): 295%
rel rate (%) (γ-PAK [1]; proteolytically (trypsin) activated γ-PAK, peptide 1 mM, compared to KKRKSAA = 100): 247%
32P incorporated (γ-PAK [1]; proteolytically activated γ-PAK (5.6 units), peptide 1 mM, 30 min at 30° C.): 750 pmol/min/µg
32P incorporated, % (γ-PAK [1]; γ-PAK, AKRASAA taken as 100%): 176%
32P incorporated (γ-PAK [1]; γ-PAK, calculated with equivalent units of enzyme): 47.2 pmol/unit
rate of phosphorylation compared to AKRASAA (γ-PAK [1]; γ-PAK, relative to AKRASAA): 175%
32P incorporated (PKC; PKC (3.4 units), with Ca2+ and phospholipids, 0.14 mM ATP): 0.4 pmol/unit
32P incorporated, % (PKC; PKC, AKRASAA taken as 100%): 12%
